Reference: patent US20250195444A1, “POLYMER-COATED NANOPARTICLES AND PREPARATION METHOD THEREFOR” (SCINDY PHARMACEUTICAL (SUZHOU) CO., LTD, priority 2022, published 2025)

Columns and labels:
[1] = test system: Carbapenem-susceptible Acinetobacter baumannii (10); test: In vitro antimicrobial susceptibility testing, broth microdilution MIC; format: cell-based; conditions: 10 strains
Description: (§1) A total of 44 strains of clinically isolated Gram-negative bacteria were collected for antimicrobial susceptibility testing, including 12 strains of Escherichia coli (carbapenem-susceptible), 12 strains of Klebsiella pneumoniae (carbapenem-susceptible), 10 strains of Acinetobacter baumannii (carbapenem-susceptible), and 10 strains of Pseudomonas aeruginosa (carbapenem-susceptible).
(§2) According to the recommendations of the 2021 edition of the Clinical and Laboratory Standards Institute (CLSI), a broth microdilution method was used to measure the minimum inhibitory concentration (MIC) of a test substance against clinical isolates. • (1) Preparation of antimicrobial drug: The test drug was dissolved and diluted, and the control drug was dissolved and diluted according to CLSI requirements. The test concentration range of the antibacterial drug solution was 0.015 mg/L to 32 mg/L. • (2) Culture medium: Cation adjusted muellerhinton broth (CAMHB), a product of BD Company, USA, batch number: 9324795. • (3) Inoculation amount: Fresh pure colonies on Columbia blood agar were picked using a direct colony suspension method. The colonies were adjusted to a McFarland turbidity of 0.5 and then appropriately diluted. The final concentration of the test bacteria was 10^5 CFU/mL. • (4) Culture conditions: The colonies were cultured in air at 35° C.±2° C. for 16 to 20 hours. • (5) Reading and judgment of results: For colistin, according to the European EUCAST breakpoint judgment standard, a result of <2 mg/L is susceptible, and a result of >4 mg/L is resistant. The lowest antimicrobial drug concentration that inhibits bacterial growth is read as an MIC value. • (6) Quality control strains: Escherichia coli ATCC 25922 and Pseudomonas aeruginosa ATCC 27853. • (7) Data statistics: WHONET version 5.6 software was used to perform statistical analysis on the results of the antimicrobial susceptibility testing.

[2] = test system: Carbapenem-susceptible Klebsiella pneumoniae (12); test: as above; format: cell-based; conditions: 12 strains
Description: as §1, §2

[3] = test system: Carbapenem-susceptible Escherichia coli (12); test: as above; format: cell-based; conditions: 12 strains
Description: as §1, §2

[4] = test system: Carbapenem-susceptible Gram-negative bacteria (44); test: as above; format: cell-based; conditions: 44 strains
Description: as §1, §2

[5] = test system: Carbapenem-susceptible Pseudomonas aeruginosa (10); test: as above; format: cell-based; conditions: 10 strains
Description: as §1, §2

[6] = Safety test, maximum tolerated dose in ICR mice; format: in vivo; conditions: male ICR mice, intravenous injection, 1.5 mg/ml
Description: The drug safety of colistin sulfate, the nanoparticles of Examples 1 and 2, and the nanoparticles of Comparative Examples 1 and 2 in mice was compared.
Test indicators: clinical observation, animal morbidity/death, and weight change. The maximum compound dosage that causes the weight loss of mice to not exceed 20% and no animal death is the maximum tolerated dose.

[7] = Safety test, maximum tolerated dose in Balb/c nude mice; conditions: male Balb/c nude mice, intravenous injection, 1.0 mg/ml
Method: Male Balb/c nude mice (purchased from Shanghai Lingchang Experimental Animal Co., Ltd.), 6 to 7 weeks old and weighing 17 g to 21 g, were given platinum cyclohexanediamine dihydrate or a platinum cyclohexanediamine dihydrate polymer-coated nanoparticle solution by intravenous injection at an administration concentration of 1.0 mg/ml. The dose volume was adjusted according to the weight of the animal. The highest dose that enables all subjects in the test to survive continuously is defined as MTD.
Animal grouping: Before starting the administration, the animals were weighed and randomly grouped according to the weight.
Test indicators: After administration, the mice were observed continuously for at least 14 days, and the observation interval and frequency were properly arranged so as to observe the occurrence of toxic reactions, recovery time, animal death time, etc. If the toxic reactions of the mice occur slowly or the mice recover slowly, the observation time should be appropriately extended.

HT29 cells = test: Proliferation of HT29 cells in vitro (CCK8); format: cell-based; conditions: 72 hours of drug treatment, read-out: HT-29ReIC50
Method: Cell culture: HT29 (Cat. No.: CBP30001L, purchased from Cobioer) was revived and cultured with 1640+10% FBS.
Plating: Normally growing cells were digested with a trypsin cell digestion solution, then centrifuged, counted, and plated into a 96-well plate at a cell density of 3000 cells/well, 100 μL per well, for a total of 60 wells, and sealed with an appropriate amount of PBS around to prevent water evaporation in the edge wells.
Administration: The administration was performed on the second day after cell plating, 100 μL of a drug solution was added to each well, and two replicate wells were set up for each concentration point.
Detection: After 72 hours of drug treatment, all the liquid in the 96-well plate was poured out, and 100 μL of a CCK8 (diluted to 1:9 with culture medium) solution was added to each well. After incubation at 37° C. for a period of time (OD450 of Vehicle group reached above 1.0), the absorption at 450 nm was detected using an ELISA reader.
Data processing: Inhibition Rate (%)=(1−OD450Sample/OD450Vehicle)×100, where
OD450Sample is the 450 nm absorption value of the drug-treated group, and OD450Vehicle is the 450 nm absorption value of the DMSO control group. GraphPad Prism 8.0 software was used to draw an S-shaped dose-survival rate curve with a nonlinear regression model, and the IC50 value was calculated.

colistin sulfate
MIC50 [1]: 0.5 µg/mL | MIC90 [1]: 0.5 µg/mL | Mode (MIC) [1]: 0.5 µg/mL | Resistance rate (%) ([1]; EUCAST breakpoint): 0% | Susceptibility rate (%) ([1]; EUCAST breakpoint): 100% | MIC50 [2]: 0.5 µg/mL | MIC90 [2]: 0.5 µg/mL | Mode (MIC) [2]: 0.5 µg/mL | Resistance rate (%) ([2]; EUCAST breakpoint): 0% | Susceptibility rate (%) ([2]; EUCAST breakpoint): 100% | MIC50 [3]: 0.125 µg/mL | MIC90 [3]: 0.25 µg/mL | Mode (MIC) [3]: 0.125 µg/mL | Resistance rate (%) ([3]; EUCAST breakpoint): 0% | Susceptibility rate (%) ([3]; EUCAST breakpoint): 100% | MIC50 [4]: 0.5 µg/mL | MIC90 [4]: 2 µg/mL | Mode (MIC) [4]: 0.5 µg/mL | Resistance rate (%) ([4]; EUCAST breakpoint): 0% | Susceptibility rate (%) ([4]; EUCAST breakpoint): 100% | MIC50 [5]: 1 µg/mL | MIC90 [5]: 2 µg/mL | Mode (MIC) [5]: 2 µg/mL | Resistance rate (%) ([5]; EUCAST breakpoint): 0% | Susceptibility rate (%) ([5]; EUCAST breakpoint): 100% | MTD [6]: 8 mg/kg

platinum cyclohexanediamine dihydrate [Cyclohexanediamine platinum dihydrate]
MTD [7]: <4 mpk | IC50 (HT29 cells): 1610 ± 230 nM
